Drawing on patent publication US6699902B2, “Acetyloxymethyl esters and methods for using the same” (Beacon Laboratories, Inc., priority 2000, dated 2004), this text covers IC50 for 9 compounds.

By IC50 is commonly meant the concentration that gives 50% inhibition. Read a low IC50 as greater potency in that assay.

This assay deals with PC-3 prostate breast cancer cells. In words: EDR assay, anti-proliferation against PC-3 cells (3H-thymidine incorporation in soft agar). The assay is classed as cell-based. As to conditions: Homo sapiens, PC3 cell line, five days incubation, 3H-TdR incorporation. How it is done:
Compounds prepared according to Examples 1-7 were tested for anti-proliferation against PC-3 prostate […] cancer cells. Butyric acid and trichostatin, a potent HDAC inhibitor, were used as reference compounds. Both compounds were purchased from Sigma-Aldrich, Milwaukee, Wis.
The PC3 cell line was maintained in RPMI supplemented with 10% fetal calf serum and antibiotics. The EDR assay was performed as described by Kern and Weisenthal in “Highly Specific Prediction of Antineoplastic Drug Resistance With An In Vitro Assay Using Suprapharmacologic Drug Exposures,” J. Nat. Cancer Inst., 82:582-588 (1990); and Fruehauf and Bosanquet, “In vitro Determination of Drug Response: A Discussion of Clinical Applications,” PPO Updates 7(12):1-16 (1993). Cells were suspended in 0.12% soft agar in complete medium and plated (2,000 cells per well, as determined by preliminary experiments) in different drug concentrations onto a 0.4% agarose underlayer in 24-well plates. Plating cells on agarose underlayers supports the proliferation only of the transformed cells, ensuring that the growth signal stems from the malignant component of the tumor.
All compounds were dissolved in DMSO to 200× stock solutions. Stock solutions were diluted to 20× working solutions using the tissue culture medium, serially diluted and added to the 24-well plates. The concentration range was 0.001 μM to 0.3 μM for trichostatin and 10 μM-1,000 μM for the other compounds. No significant changes in pH of the culture medium were observed under the above conditions. Diluent control wells contained PC3 cells treated with DMSO, at the dilutions used for appropriate drug treatment. All experimental points were represented by two separate wells (duplicates). Positive controls were determined using at least two wells treated with an extremely high dose of cisplatin, an anti-cancer agent. Four wells containing tumor cells that were not treated with drugs served as negative controls in each experiment.
Cells were incubated with drugs under standard culture conditions for five days. Cultures were pulsed with tritiated thymidine (^3H-TdR, New Life Science Products, Boston, Mass.) at 5 μCi per well for the last 48 hours of the culture period. Cell culture plates were then heated to 90° C. to liquefy the agarose, and cells were harvested onto glass fiber filters, which were then placed into counting vials containing liquid scintillation fluid. The radioactivity trapped on the filters was counted with a Beckman scintillation counter. The fraction of surviving cells was determined by comparing ^3H-TdR incorporation in treated (experimental points) and untreated (negative control) wells. All drug concentrations are presented as μM, allowing for normalization of drug response curves and direct comparison of the effects of the drugs. Microsoft Excel was used to organize the raw data on EDR experiments, and the SigmaPlot program was utilized to generate drug response curves. All drug response curves were as approximated as sigmoidal equations (characteristic for typical drug response curves) to fit the data. IC50 values were determined using the approximated sigmoidal curves and expressed as μM.
On the technique in general: Incorporation of labelled thymidine or its analogues reports DNA synthesis.
With `CC(=O)OCOC(=O)C=CSc1ccccc1` [3-(phenylthio)acryloyloxymethyl acetate], inhibition was half-maximal at 30 µM (IC50). The result for `CC(=O)OCOC(=O)CCCC1CCCCC1` [4-cyclohexanebutyroyloxymethyl acetate] reads 23.2 µM. With `CC(=O)OCOC(=O)C=CC=Cc1ccccc1` [5-phenyl-2,4-pentadienoyloxymethyl acetate] the figure was 20 µM; with `CC(=O)OCOC(=O)CC=CC=Cc1ccccc1` [6-phenyl-3,5-hexadienoyloxymethyl acetate], 18 µM. As to `CC(=O)OCOC(=O)CSCc1ccccc1` [S-benzylthioglycoloyloxymethyl acetate], the IC50 is 28.4 µM. The result for `CCCC(=O)O` [butyric acid, reference compound] reads greater than 2000 µM. Turning to `CC(=O)OCOC(=O)C=Cc1ccccc1` [cinnamoyloxymethyl acetate], half-maximal inhibition (IC50) was put at 12.5 µM. The result for `CC(=O)OCOC(=O)C#Cc1ccccc1` [phenylpropioloyloxymethyl acetate] reads 25 µM; that for `CC(/C=C/C(=O)NO)=C\[C@@H](C)C(=O)c1ccc(N(C)C)cc1` [trichostatin, reference compound], 0.005 µM.
